According to PubChem BioAssay (NCI):
Several values for one entry are separate records, joined by “and”; a condition that tells them apart may be missing. Equal values may be shown once.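 Following 48 hours of exposure in 96-well plates, responses at five concentrations were used to interpolate endpoints linearly. Abbreviation: GI50, concentration required for 50% inhibition of growth. TGI: total growth inhibition.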

What was measured:
Experiment in all cases: NCI tumour cell line growth inhibition, 48 h
KM12 colon = system: KM12 colon
TK-10 renal = system: TK-10 renal
786-0 renal = system: 786-0 renal
SNB-19 CNS = system: SNB-19 CNS
HCT-116 colon = system: HCT-116 colon
NCI/ADR-RES ovarian = system: NCI/ADR-RES ovarian
COLO 205 colon = system: COLO 205 colon
M14 melanoma = system: M14 melanoma

| Structure (SMILES) | GI50 (KM12 colon) | TGI (KM12 colon) | GI50 (TK-10 renal) | TGI (TK-10 renal) | GI50 (786-0 renal) | TGI (786-0 renal) | GI50 (SNB-19 CNS) | TGI (SNB-19 CNS) | GI50 (HCT-116 colon) | TGI (HCT-116 colon) | GI50 (NCI/ADR-RES ovarian) | TGI (NCI/ADR-RES ovarian) | GI50 (COLO 205 colon) | TGI (COLO 205 colon) | GI50 (M14 melanoma) | TGI (M14 melanoma) |
| --- | --- | --- | --- | --- | --- | --- | --- | --- | --- | --- | --- | --- | --- | --- | --- | --- |
| Clc1ccc2nnnn2n1 | 2.08 µM | 4.87 µM | 3.5 µM | 23.6 µM | 3.73 µM | > 100 µM | 31.8 µM | > 100 µM | 2.06 µM | 4.46 µM | 5.61 µM | > 100 µM | 2.03 µM | 3.81 µM | 1.98 µM | 6.26 µM |
| CCN1C(=O)N(c2ccccc2)C2NC(=S)N(/N=C/C=C/c3ccccc3)C21 (centres undefined) | 0.358 µM | > 100 µM | 0.825 µM | > 100 µM | 0.521 µM | > 100 µM | 0.472 µM | > 100 µM | 0.297 µM | > 100 µM | 0.288 µM | > 100 µM | 0.344 µM | 8.7 µM | 0.239 µM | > 100 µM |
| S=c1ssc(Oc2ccccc2)c1Cl | 13.2 µM | 26 µM | 3 µM | 9.68 µM | 6.63 µM | 20.7 µM | 31.6 µM | 79.6 µM | – | – | 16.4 µM | 35.4 µM | 23 µM | 47.5 µM | 18 µM | 43.2 µM |
| COc1cc(-n2cc(-c3ccc(Cl)cc3)nc2SCc2cccc(C#N)c2)cc(OC)c1OC | > 100 µM | > 100 µM | 30.5 µM | > 100 µM | 25.1 µM | 92.5 µM | 48 µM | > 100 µM | 37.3 µM | > 100 µM | 94.7 µM | > 100 µM | > 100 µM | > 100 µM | > 100 µM | > 100 µM |
| Oc1[nH]c2c(Br)cccc2c1C1=Nc2ccccc2/C1=N/OCCN1CCCC1 | 0.708 µM and 0.501 µM | > 100 µM | 2.58 µM and 1.8 µM | > 100 µM | 0.648 µM and 0.942 µM | 2.58 µM and 4.31 µM | 1.93 µM | – | 0.448 µM | 1.78 µM | 0.793 µM and 0.766 µM | – | 0.524 µM | 4.81 µM | 1.94 µM | – |
| O=S(=O)(c1cccc2c(Cl)cccc12)N1CCCNCC1 | 15 µM | 28.2 µM | 13 µM | 25.8 µM | 11.1 µM | 23.1 µM | 16.3 µM | 30.5 µM | 10.3 µM | 21.9 µM | 13.7 µM | 26.6 µM | 16.4 µM | 35.4 µM | 12.4 µM | 24.9 µM |
| COc1cc(/C=N/NC(=O)c2cnn3c2NC(c2ccccc2)C3)ccc1Oc1ccccc1 (centres undefined) | 0.528 µM | 3 µM | 2.62 µM | 11.5 µM | 1.19 µM | 5.65 µM | 1.43 µM | 8.31 µM | – | – | 1.73 µM | 9.59 µM | 0.819 µM | 6.97 µM | 0.761 µM | 10.7 µM |
| OC(CNCC1CCCO1)Cn1c2ccc(Cl)cc2c2cc(Cl)ccc21 (centres undefined) | 1.81 µM | 3.27 µM | 2.05 µM | 3.75 µM | 1.59 µM | 3.08 µM | 1.88 µM | 3.96 µM | 1.73 µM | 3.12 µM | 1.93 µM | 3.82 µM | 1.92 µM | 3.61 µM | – | – |
